Measurements taken from ChEMBL document CHEMBL4665869, “New thiazolopyrimidine as anticancer agents: Synthesis, biological evaluation, DNA binding, molecular modeling and ADMET study” (Bioorg Med Chem Lett, 2020).
Values after ≈ are worked out from the molar mass of the structure shown.

Legend:
LOX IMVI = test: Growth inhibition of human LOX IMVI cells at 10 uM relative to control; format: functional; settings: read-out: GI
MDA-MB-468 = test: Growth inhibition of human MDA-MB-468 cells at 10 uM relative to control; format: functional; settings: read-out: GI
T47D = test: Growth inhibition of human T47D cells at 10 uM relative to control; format: functional; settings: read-out: GI
CCRF-CEM = test: Growth inhibition of human CCRF-CEM cells at 10 uM relative to control; format: functional; settings: read-out: GI
HL-60(TB) = test: Growth inhibition of human HL-60(TB) cells at 10 uM relative to control; format: functional; settings: read-out: GI
K562 = test: Growth inhibition of human K562 cells at 10 uM relative to control; format: functional; settings: read-out: GI
MOLT-4 = test: Growth inhibition of human MOLT-4 cells at 10 uM relative to control; format: functional; settings: read-out: GI
RPMI-8226 = test: Growth inhibition of human RPMI-8226 cells at 10 uM relative to control; format: functional; settings: read-out: GI
SR = test: Growth inhibition of human SR cells at 10 uM relative to control; format: functional; settings: read-out: GI
A549 = test: Growth inhibition of human A549 cells at 10 uM relative to control; format: functional; settings: read-out: GI
HOP-62 = test: Growth inhibition of human HOP-62 cells at 10 uM relative to control; format: functional; settings: read-out: GI
HOP-92 = test: Growth inhibition of human HOP-92 cells at 10 uM relative to control; format: functional; settings: read-out: GI
NCI-H226 = test: Growth inhibition of human NCI-H226 cells at 10 uM relative to control; format: functional; settings: read-out: GI
NCI-H23 = test: Growth inhibition of human NCI-H23 cells at 10 uM relative to control; format: functional; settings: read-out: GI
NCI-H322M = test: Growth inhibition of human NCI-H322M cells at 10 uM relative to control; format: functional; settings: read-out: GI
NCI-H460 = test: Growth inhibition of human NCI-H460 cells at 10 uM relative to control; format: functional; settings: read-out: GI
NCI-H522 = test: Growth inhibition of human NCI-H522 cells at 10 uM relative to control; format: functional; settings: read-out: GI
SW-620 = test: Growth inhibition of human SW-620 cells at 10 uM relative to control; format: functional; settings: read-out: GI
COLO 205 = test: Growth inhibition of human COLO 205 cells at 10 uM relative to control; format: functional; settings: read-out: GI
HCC 2998 = test: Growth inhibition of human HCC 2998 cells at 10 uM relative to control; format: functional; settings: read-out: GI
HCT-116 = test: Growth inhibition of human HCT-116 cells at 10 uM relative to control; format: functional; settings: read-out: GI
HCT-15 = test: Growth inhibition of human HCT-15 cells at 10 uM relative to control; format: functional; settings: read-out: GI
HT-29 = test: Growth inhibition of human HT-29 cells at 10 uM relative to control; format: functional; settings: read-out: GI
KM12 = test: Growth inhibition of human KM12 cells at 10 uM relative to control; format: functional; settings: read-out: GI
SF-268 = test: Growth inhibition of human SF-268 cells at 10 uM relative to control; format: functional; settings: read-out: GI
SF-295 = test: Growth inhibition of human SF-295 cells at 10 uM relative to control; format: functional; settings: read-out: GI
SF-539 = test: Growth inhibition of human SF-539 cells at 10 uM relative to control; format: functional; settings: read-out: GI
SNB-19 = test: Growth inhibition of human SNB-19 cells at 10 uM relative to control; format: functional; settings: read-out: GI
SNB-75 = test: Growth inhibition of human SNB-75 cells at 10 uM relative to control; format: functional; settings: read-out: GI
U-251 = test: Growth inhibition of human U-251 cells at 10 uM relative to control; format: functional; settings: read-out: GI
Malme-3M = test: Growth inhibition of human Malme-3M cells at 10 uM relative to control; format: functional; settings: read-out: GI
M14 = test: Growth inhibition of human M14 cells at 10 uM relative to control; format: functional; settings: read-out: GI
MDA-MB-435 = test: Growth inhibition of human MDA-MB-435 cells at 10 uM relative to control; format: functional; settings: read-out: GI
SK-MEL-2 = test: Growth inhibition of human SK-MEL-2 cells at 10 uM relative to control; format: functional; settings: read-out: GI
SK-MEL-28 = test: Growth inhibition of human SK-MEL-28 cells at 10 uM relative to control; format: functional; settings: read-out: GI
SK-MEL-5 = test: Growth inhibition of human SK-MEL-5 cells at 10 uM relative to control; format: functional; settings: read-out: GI
UACC-257 = test: Growth inhibition of human UACC-257 cells at 10 uM relative to control; format: functional; settings: read-out: GI
UACC-62 = test: Growth inhibition of human UACC-62 cells at 10 uM relative to control; format: functional; settings: read-out: GI
IGROV-1 = test: Growth inhibition of human IGROV-1 cells at 10 uM relative to control; format: functional; settings: read-out: GI
OVCAR-4 = test: Growth inhibition of human OVCAR-4 cells at 10 uM relative to control; format: functional; settings: read-out: GI
OVCAR-5 = test: Growth inhibition of human OVCAR-5 cells at 10 uM relative to control; format: functional; settings: read-out: GI
OVCAR-8 = test: Growth inhibition of human OVCAR-8 cells at 10 uM relative to control; format: functional; settings: read-out: GI
NCI/ADR-RES = test: Growth inhibition of human NCI/ADR-RES cells at 10 uM relative to control; format: functional; settings: read-out: GI
SK-OV-3 = test: Growth inhibition of human SK-OV-3 cells at 10 uM relative to control; format: functional; settings: read-out: GI
786-0 = test: Growth inhibition of human 786-0 cells at 10 uM relative to control; format: functional; settings: read-out: GI
A498 = test: Growth inhibition of human A498 cells at 10 uM relative to control; format: functional; settings: read-out: GI
ACHN = test: Growth inhibition of human ACHN cells at 10 uM relative to control; format: functional; settings: read-out: GI
CAKI-1 = test: Growth inhibition of human CAKI-1 cells at 10 uM relative to control; format: functional; settings: read-out: GI
RXF 393 = test: Growth inhibition of human RXF 393 cells at 10 uM relative to control; format: functional; settings: read-out: GI
SN12C = test: Growth inhibition of human SN12C cells at 10 uM relative to control; format: functional; settings: read-out: GI
TK-10 = test: Growth inhibition of human TK-10 cells at 10 uM relative to control; format: functional; settings: read-out: GI
UO-31 = test: Growth inhibition of human UO-31 cells at 10 uM relative to control; format: functional; settings: read-out: GI
PC-3 = test: Growth inhibition of human PC-3 cells at 10 uM relative to control; format: functional; settings: read-out: GI
DU-145 = test: Growth inhibition of human DU-145 cells at 10 uM relative to control; format: functional; settings: read-out: GI
MCF7 = test: Growth inhibition of human MCF7 cells at 10 uM relative to control; format: functional; settings: read-out: GI
MDA-MB-231 = test: Growth inhibition of human MDA-MB-231 cells at 10 uM relative to control; format: functional; settings: read-out: GI
Hs-578T = test: Growth inhibition of human Hs-578T cells at 10 uM relative to control; format: functional; settings: read-out: GI
BT-549 = test: Growth inhibition of human BT-549 cells at 10 uM relative to control; format: functional; settings: read-out: GI
DNA = test: Displacement of methyl green from DNA (unknown origin) assessed as DNA intercalation after 24 hrs by colorimetric assay; format: nucleic-acid assay

With `COc1ccc(/C=C/C2=CC(c3ccc(OC)cc3)N3C=CSC3=N2)cc1` (centres undefined) the inhibition of growth at 10 µM (LOX IMVI) was < 10%, the inhibition of growth at 10 µM (MDA-MB-468) was < 10% and the inhibition of growth at 10 µM (T47D) was < 10%. For the same molecule, the inhibition of growth at 10 µM (CCRF-CEM) was < 10%, the inhibition of growth at 10 µM (HL-60(TB)) was < 10% and the inhibition of growth at 10 µM (K562) was < 10%. For the same molecule, the inhibition of growth at 10 µM (MOLT-4) was < 10%, the inhibition of growth at 10 µM (RPMI-8226) was < 10% and the inhibition of growth at 10 µM (SR) was < 10%. The inhibition of growth at 10 µM (A549) was < 10%, the inhibition of growth at 10 µM (HOP-62) was < 10% and the inhibition of growth at 10 µM (HOP-92) was 10.1%. For the same molecule, the inhibition of growth at 10 µM (NCI-H226) was < 10%, the inhibition of growth at 10 µM (NCI-H23) was < 10% and the inhibition of growth at 10 µM (NCI-H322M) was < 10%. The inhibition of growth at 10 µM (NCI-H460) was < 10%, the inhibition of growth at 10 µM (NCI-H522) was < 10% and the inhibition of growth at 10 µM (SW-620) was < 10%. For the same molecule, the inhibition of growth at 10 µM (COLO 205) was < 10%, the inhibition of growth at 10 µM (HCC 2998) was < 10% and the inhibition of growth at 10 µM (HCT-116) was < 10%. For the same molecule, the inhibition of growth at 10 µM (HCT-15) was < 10%, the inhibition of growth at 10 µM (HT-29) was < 10% and the inhibition of growth at 10 µM (KM12) was < 10%. For the same molecule, the inhibition of growth at 10 µM (SF-268) was < 10%, the inhibition of growth at 10 µM (SF-295) was < 10% and the inhibition of growth at 10 µM (SF-539) was < 10%. The inhibition of growth at 10 µM (SNB-19) was < 10%, the inhibition of growth at 10 µM (SNB-75) was < 10% and the inhibition of growth at 10 µM (U-251) was < 10%. The inhibition of growth at 10 µM (Malme-3M) was < 10%, the inhibition of growth at 10 µM (M14) was < 10% and the inhibition of growth at 10 µM (MDA-MB-435) was < 10%. For the same molecule, the inhibition of growth at 10 µM (SK-MEL-2) was < 10%, the inhibition of growth at 10 µM (SK-MEL-28) was < 10% and the inhibition of growth at 10 µM (SK-MEL-5) was < 10%. The inhibition of growth at 10 µM (UACC-257) was 11.9%, the inhibition of growth at 10 µM (UACC-62) was < 10% and the inhibition of growth at 10 µM (IGROV-1) was < 10%. For the same molecule, the inhibition of growth at 10 µM (OVCAR-4) was < 10%, the inhibition of growth at 10 µM (OVCAR-5) was < 10% and the inhibition of growth at 10 µM (OVCAR-8) was < 10%. For the same molecule, the inhibition of growth at 10 µM (NCI/ADR-RES) was < 10%, the inhibition of growth at 10 µM (SK-OV-3) was < 10% and the inhibition of growth at 10 µM (786-0) was < 10%. For the same molecule, the inhibition of growth at 10 µM (A498) was < 10%, the inhibition of growth at 10 µM (ACHN) was < 10% and the inhibition of growth at 10 µM (CAKI-1) was < 10%. For the same molecule, the inhibition of growth at 10 µM (RXF 393) was < 10%, the inhibition of growth at 10 µM (SN12C) was < 10% and the inhibition of growth at 10 µM (TK-10) was < 10%. The inhibition of growth at 10 µM (UO-31) was < 10%, the inhibition of growth at 10 µM (PC-3) was 17.2% and the inhibition of growth at 10 µM (DU-145) was < 10%. The inhibition of growth at 10 µM (MCF7) was < 10%, the inhibition of growth at 10 µM (MDA-MB-231) was < 10% and the inhibition of growth at 10 µM (Hs-578T) was < 10%. The inhibition of growth at 10 µM (BT-549) was < 10% and the IC50 (DNA) was 47.75 µg/mL (≈ 127 µM).
